Source: patent publication US20250152633A1, “CELLS HAVING IMPROVED PROLIFERATIVE CAPACITY AND REDUCED CELLULAR SENESCENCE” (BOARD OF REGENTS, THE UNIVERSITY OF TEXAS SYSTEM, priority 2023, published 2025)
“Also recorded” adds a separate entry of the source. Read-outs that look alike come from different tables or passages of the source. Bridge positions count the residues as written; N and C are the ends. Ends that are not written are not given here.

What was measured:
[1] = test system: MSCs from an aged donor; experiment: p-γ-H2AX DNA double-strand break repair foci immunostaining; type: cell-based, human; conditions: for p-γ-H2AX foci, treatment of static control cells vs. static treatment alone: 4 hours static, 3 μM GsMTx4, 2 μM Dooku 1
Description: Immunocytochemical staining on silicone membranes. Following the treatments, the cells were fixed in 4% paraformaldehyde in PBS for 10 minutes followed by washing and permeabilization with 0.1% Triton X-100 PBS for 5 minutes. Next, samples were blocked with PBS containing 5% FBS and 1% BSA for 40 minutes. After washing, cells were incubated with primary antibodies (see Table 2 for specific antibodies and concentrations) in PBS with 1% BSA overnight at 4° C. The samples were then washed twice in PBS with 1% BSA and incubated with secondary antibodies in PBS with 1% BSA for 2 hours in a light protected environment. Cells treated with extensive washes with PBS with 1% BSA prior to mounting in anti-fade media (Vector Laboratories, Inc.). The samples were then imaged using confocal microscopy with a LSM 710 laser scanning confocal microscope (Carl Zeiss, Inc.).
p-γ-H2AX Foci Analysis. Following confocal imaging, images were analyzed with FIJI software to count p-γ-H2AX histone foci. Three-dimensional image stacks were maximum intensity projected to generate two-dimensional images with 12-bit range of 0-4095. Background signal outside of nuclei boundaries was measured and subtracted from the image. Individual cell nuclei regions of interest were selected, and an intensity threshold of 300 bits was applied. The Analyze Particle plugin was applied to count the p-γ-H2AX foci in each nucleus, with a minimum particle size of 0.5 μm applied. At least 100 individual cell nuclei were analyzed for each treatment group to calculate the mean foci count per cell, mean foci count per nuclear area, and standard errors.
(§1) Conditioning of hMSCs using biochemical factors. For mechanistic experiments involving chemical factors and biological inhibitors, cells were incubated with the chemical treatments as shown in Table 3. The cells were treated with mechanical loading for 4 hours/day under brachial waveform at 0.1 Hz and 7.5% maximum strain or cultured under static conditions. The culture media containing the treatments were replaced on day 3 and day 5 for all 7-day treatments.

[2] = test system: MSCs from aged donors; experiment: BrdU proliferation assay (DNA synthesis) after mechanical and chemical treatment; type: cell-based, human; conditions: for DNA synthesis (BrdU assay): co-treatment with brachial loading, 5 μM KU55933 or 5 mM NAC, aged donor MSCs, vs. static control
Description: Cell lines and cell culture. Human mesenchymal stem cells (Promocell) were cultured in low glucose DMEM medium supplemented with 15% fetal bovine serum, L-glutamine and penicillin/streptomycin. Following trypsinization, cells were seeded on the membranes at 20,000 cells per cm^2 before mechanical loading. The cells were used between passages 4-6, unless otherwise specified. The MSCs were derived from a donor 1, unless otherwise specified. A subset of the studies were performed using MSCs from donor 2, or donor 3, or donor 4. A subset of the studies used MSCs derived from a young, healthy donor. Human umbilical vein endothelial cells (HUVECs; PromoCell GmbH) were cultured in MCDB 131 medium supplemented with 7.5% fetal bovine serum, L-glutamine and penicillin/streptomycin and EGM-2 SingleQuot Kit (Thermo Fisher Scientific, Inc.). All cells were cultured in an incubator at 37° C. under a 5% CO2 atmosphere.
Application of biomechanical treatment. Mechanical strain was applied to cell culture using a high throughput system described previously (Lee et al., 2013; Lee & Baker, 2015; Lee et al., 2020). Briefly, cells are cultured on custom made plates that are mounted on a system that applies strain. The cell culture plates were comprised of silicone membranes (0.005″ thickness; Specialty Manufacturing, Inc.) that are sandwiched between two plates, with silicone rubber gaskets at the interfaces to prevent leaking. These cell culture membranes are UV sterilized and coated with 50 μg/mL fibronectin overnight at 37° C. to allow cell adhesion. After cell attachment, the plates are mounted on to the top plate of the system using screws. To apply mechanical strain, a platen with 36 Teflon pistons is moved into the cell culture membrane. The motion is driven by a hygienically sealed, voice coil-type linear motor (Copley Controls). The platen is stabilized using six motion rails mounted with linear motion bearings. […]
BrdU Proliferation Assay. […] Absorbance was read at 450 nm using a FlexStation-3 plate reader (Molecular Devices). […]

[3] = test system: MSCs from an aged donor one; experiment: Western blotting of protein expression after treatment of MSCs; type: cell-based, human; conditions: for SIRT6 expression (Western blotting): brachial+NAC (5 mM) or KU55933 (5 μM) treatment; for DNA damage repair protein KU80 expression (Western blotting): brachial+NAC (5 mM) or brachial+KU55933 (5 μM), compared to control groups
Description: Application of biomechanical treatment. Mechanical strain was applied to cell culture using a high throughput system described previously (Lee et al., 2013; Lee & Baker, 2015; Lee et al., 2020). Briefly, cells are cultured on custom made plates that are mounted on a system that applies strain. The cell culture plates were comprised of silicone membranes (0.005″ thickness; Specialty Manufacturing, Inc.) that are sandwiched between two plates, with silicone rubber gaskets at the interfaces to prevent leaking. These cell culture membranes are UV sterilized and coated with 50 μg/mL fibronectin overnight at 37° C. to allow cell adhesion. After cell attachment, the plates are mounted on to the top plate of the system using screws. To apply mechanical strain, a platen with 36 Teflon pistons is moved into the cell culture membrane. The motion is driven by a hygienically sealed, voice coil-type linear motor (Copley Controls). The platen is stabilized using six motion rails mounted with linear motion bearings. The hygienically sealed motor housing has chilled water running through in order to prevent overheating during operation. Unless otherwise specified, loading was applied for 4 hours per day for 7 days with or without 1 μm the EGFR/ErbB-2/ErbB-4 Inhibitor (CAS 881001-19-0; Table 3).
Cell lysis and immunoblotting. Following the treatments, the cells were lysed in 20 mM Tris with 150 mM NaCl, 1% Triton X-100, 0.1% SDS, 2 mM sodium orthovandate, 2 mM PMSF, 50 mM NaF and a protease inhibitor cocktail (Roche, Inc.). The proteins were separated on a NuPAGE 10% bis-tris midi gel (Novex) and transferred to nitrocellulose membrane using iBlot transfer stack (Novex). The membranes were blocked for one hour in 5% non-fat milk in PBS with 0.01% tween-20 (PBST). After washing twice in PBST, cells were incubated with primary antibodies (Table 1) overnight in 1% non-fat milk at 4° C. The membranes were washed with PBST and incubated at room temperature for two hours with secondary antibody. The membrane was treated with chemiluminescent substrate (SuperSignal West Femto; Thermo Fisher Scientific, Inc.) then imaged using a digital imaging system (Cell Biosciences, Inc.).
as §1

[4] = test system: MSCs from three young, healthy donors; experiment: RNA-seq analysis of senescence-related gene sets; type: cell-based, human; conditions: brachial loading and E/E inhibitor; young donor MSCs; age-, oncogenic-, stress-, developmental- and inflammation-related senescence gene sets
Description: To investigate the treatments' effects on gene expression patterns that are correlated with senescence in MSCs, MSCs were obtained from three young, healthy donors, and conditioned with brachial loading and E/E inhibitor. Following the treatments, RNA-seq analysis was performed on the cells, and the expression of several key gene sets related to various mechanisms of senescence in MSCs was evaluated. These gene sets were identified through a thorough investigation of the literature as key mediators of MSC senescence, and the expression pattern of each gene as it pertains to MSC senescence was documented (Zhou et al., 2020; Brandl et al., 2011; Turinetto et al., 2016; Ozkul & Galderisi, 2016; Fridman & Tainsky, 2008; Ki et al., 2014; Cakouros & Gronthos, 2019; Peffers et al., 2016). […] Next, a gene set enrichment analysis (GSEA) was performed on the RNA-seq data. […] In all three senescence-related gene sets, a reduction in senescence related genes with brachial mechanical loading was observed (FIG. 1).
RNA Sequencing and Analysis. […] For sequencing, single reads of 50 base pairs were performed after poly-A mRNA capture using the Poly(A) Tailing Kit (Ambion) and Ultra II Directional RNA Library Prep Kit (NEB) to isolate mRNA and perform dUTP directional preparation of the mRNA library. […]

[5] = test system: MSCs from young donors; conditions: 1 μM inhibitor as cotreatment with brachial loading; cited from earlier work
[6] = test system: MSCs from young donors; conditions: 1 μM inhibitor as cotreatment with brachial loading, tube formation assay, cited from earlier work
[7] = test system: aged MSCs; experiment: β-Galactosidase staining of senescent cell phenotypes; type: cell-based, human; conditions: 5 mM NAC or 5 μM KU55933, with or without brachial loading; vs. static control
Description: Conditioning of hMSCs using biochemical factors. For mechanistic experiments involving chemical factors and biological inhibitors, cells were incubated with the chemical treatments as shown in Table 3. The cells were treated with mechanical loading for 4 hours/day under brachial waveform at 0.1 Hz and 7.5% maximum strain or cultured under static conditions. The culture media containing the treatments were replaced on day 3 and day 5 for all 7-day treatments. β-Galactosidase Analysis. Following the treatments, cell culture media was removed, and cells were washed once with PBS. Cells were fixed and stained for β-Galactosidase following the protocol of the Senescence β-Galactosidase Staining Kit (Cell Signaling Technologies). Following staining, cells were stored with 70% glycerol and imaged using a light microscope (Meiji, Inc.). Images were post-processed in Adobe Photoshop to increase image contrast and visibility of β-Galactosidase+ cells. Total cells and β-Galactosidase+ cells were manually counted in FIJI, with at least 1,000 cells counted per treatment group.

Compound: CC(Nc1nc(N2CCCC2)nc2ccccc12)c1ccccc1 (stereo not drawn) [Importazole]
- p-γ-H2AX foci, co-treatment with brachial loading vs. brachial loading alone ([1]; 4 hours brachial loading, 40 μM Importazole): significantly more p-γ-H2AX foci than treatment with brachial loading alone

Compound: Dooku1
- p-γ-H2AX foci, treatment of static control cells vs. static treatment alone [1]: significantly more p-γ-H2AX foci than static treatment alone

Compound: O=c1cc(-c2cccc3c2Sc2ccccc2S3)oc(N2CCOCC2)c1 [KU55933]
- DNA synthesis (BrdU assay) [2]: significantly higher DNA synthesis
- SIRT6 expression (Western blotting) ([3]; vs. static control): no significant change
- DNA damage repair protein KU80 expression (Western blotting) [3]: remained statistically unchanged

Compound: CC#CC(=O)Nc1cc2c(Nc3ccc(F)c(Cl)c3)ncnc2cn1 [E/E inhibitor]
- DNA synthesis (BrdU proliferation assay) ([2]; brachial loading 7.5% strain, 4 hours per day for 7 days + 1 μM E/E inhibitor, MSCs from three donors (68-92 years), relative to static control): increased DNA synthesis in two of three donor lines
- expression of antioxidant enzyme SOD1 (Western blotting) ([3]; brachial loading and E/E inhibitor treatments, aged donor one MSCs): significantly upregulated expression
- oxidative stress signaling protein expression, FOX0 transcription factors (Western blotting) ([3]; brachial+E/E inhibitor, 4 hours per day for 7 days, aged donor one MSCs, vs. static control): upregulation of FOX01, p-FOX01, FOX03a, p-FOX03a, and p-FOX04
- Sirtuin protein expression (Western blotting) ([3]; brachial+E/E treatment, donor one MSCs, in comparison to static control): upregulation of p-SIRT1, SIRT6, and SIRT7
- senescence-related gene expression patterns (RNA-seq) [4]: reversed the effects implicated by senescence
- MSCs that expressed the markers for both endothelial cells and pericytes [5]: dramatic increase
- angiogenic activity / angiogenic properties of MSCs ([6]; listed as EGFR/ErbB-2/4 (E/E) inhibitor): enhanced angiogenic activity
- angiogenic activity / angiogenic properties of MSCs ([6]; listed as EGFR/ErbB-2/4 (E/E)): synergistically enhances the angiogenic properties

Compound: CC(=O)N[C@@H](CS)C(=O)O [NAC, N-acetyl-L cysteine]
- DNA synthesis (BrdU assay) [2]: not under brachial+NAC treatment; also recorded: a reduction of proliferative enhancement was observed
- SIRT6 expression (Western blotting) ([3]; vs. static control): significant upregulation
- DNA damage repair protein KU80 expression (Western blotting) [3]: remained statistically unchanged
- percentage of β-galactosidase+ cells [7]: significant reduction

Compound: GsMTx4: directly inhibits Piezo1 channel activity (Tocris 4912) (GCLEFWWKCNPNDDKCCRPKLKCSKLFKLCNFSF; disulfide 16-30, 2-17, 9-23; not fully specified (C-terminus); ends not checked; UniProt Q7YT39 47-80, looked up)
- p-γ-H2AX foci, treatment of static control cells vs. static treatment alone [1]: significantly more p-γ-H2AX foci than static treatment alone
